Data from US7731992B2, “Method of inhibiting aromatase with specific dietary supplements” (Triarco Industries, Inc., priority 2003, dated 2010).
Where “and” joins values, the source holds several entries; their conditions need not be identical. Equal entries are not always repeated. Where two headings read alike, the source gives them in different places.

Experiments:
human aromatase (CYP19) = molecular target: T1, human aromatase (CYP19) (Homo sapiens, UniProt P11511); experiment: Inhibition of CYP19-catalyzed dealkylation of DBF (fluorescence, 96 well plates); format: biochemical
T1 construct: purchased Gentest P260; host or cells: baculovirus-infected insect cells (microsomes)
T1 sequence (P11511 1-503): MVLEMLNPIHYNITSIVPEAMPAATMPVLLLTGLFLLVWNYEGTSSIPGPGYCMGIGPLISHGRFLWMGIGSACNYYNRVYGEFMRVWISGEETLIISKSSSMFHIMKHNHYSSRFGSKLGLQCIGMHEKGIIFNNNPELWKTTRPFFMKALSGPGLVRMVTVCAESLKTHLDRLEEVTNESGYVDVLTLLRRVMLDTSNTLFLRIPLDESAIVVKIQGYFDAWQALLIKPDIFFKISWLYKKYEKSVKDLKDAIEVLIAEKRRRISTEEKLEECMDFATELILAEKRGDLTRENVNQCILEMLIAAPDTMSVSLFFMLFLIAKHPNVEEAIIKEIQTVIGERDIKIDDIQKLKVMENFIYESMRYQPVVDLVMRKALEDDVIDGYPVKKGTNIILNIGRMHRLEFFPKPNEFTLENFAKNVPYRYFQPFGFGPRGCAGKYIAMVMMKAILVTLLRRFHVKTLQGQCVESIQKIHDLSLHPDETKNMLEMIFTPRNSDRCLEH
Description: The inhibition of aromatase activity was measured in 96 well plates with cDNA-derived enzymes in microsomes prepared from baculovirus-infected insect cells. Dibenzylfluorescien (DBF) was used as a reporter substrate for the activity of the aromatase enzyme.
In the inhibition study, the 50 percent inhibitory concentration (IC50) for each substance was determined with the enzyme. A single concentration of DBF, below the apparent Km, and multiple test substance concentrations, separated by approximately ½ log, were tested in duplicate. Metabolism of the model substrate was assayed by the production of fluorescein metabolite, which was detected and measured using fluorescence.
The amount of solvent during the assay incubations was the same for all test substance concentrations.
As noted above, the assay was conducted in 96 well microplates. Initially, solutions of the substrate in acetonitrite at a concentration equal to the km were prepared. The inhibition of the CYP19-catalyzed dealkylation of DBF was determined, using 4-hydroxyandrostenedione, a known inhibitor of CYP19, as a positive control, and sulfaphenazone, as a negative control. The final concentration of CYP19 (Gentest catalog number P260) was 0.4 pmol/well, and the final concentration of microsomal protein was normalized to 0.25 mg/ml by the addition of the insect cell control protein. The final concentration of substrate was 0.2 μM, and the final concentration of the potassium phosphate buffer was 50 μM. The incubation time was 30 minutes.
A row of 12 wells was used in each test, and each test of a test substance/substrate combination was duplicated in a second row. In each test, wells 1 to 8 contained serial 1:3 dilutions of the inhibitors in which the maximum concentration of phytosterols was 10 μg/ml, and that of the other test substances was 250 μg/ml, assuming complete solubilization at the desired concentrations, i.e., 2 mg/ml for the phytosterols and 50 mg/ml for the other test substances. Wells 9 and 10 contained no inhibitor, and wells 11 and 12 were blanks in which stop solution was added before the enzyme to test for background fluorescence.
The plates were then warmed to 37° C., and incubation was initiated by the addition of the pre-warmed enzyme, additional insect cell control protein in an amount sufficient to provide the desired concentration, and substrate. The final cofactor concentrations were 1.3 μM NADP, 3.3 μM glucose-6-phosphate, and 0.4 U/ml glucose-6-phosphate dehydrogenase. The incubation reactions were stopped after 30 minutes by the addition of 0.075 ml of 2 N NaOH, and fluorescence was measured for each well using a FLUOstar model 403 plate scanner after a post-stop incubation period of about 4 hours. The DBF metabolite fluorescein was measured using an excitation wavelength of about 485 nm and an emission wavelength of about 538 nm.

[1] = format: physicochemical
Description: The test solutions were prepared by adding the test substances to separate aliquots of dimethyl sulfoxide (DMSO). The target concentration of each test substance was 50 mg/ml. […] Mild heat and sonication were applied to aid in obtaining solutions of the other substances at the desired concentration. The black cohosh powder and echinacea were also centrifuged prior to the use of the supernatant in the assay to sediment any particulate matter present in the solutions.
None were successful. […] Insoluble material that would not sediment when centrifuged was still present at 2 mg/ml, forming a thin, whitish layer on the surface of the solution. This particulate material was avoided when sampling the sterol solution for the assay.

With `C[C@]12CCC(=O)C(O)=C1CC[C@@H]1[C@@H]2CC[C@]2(C)C(=O)CC[C@@H]12` [4-Hydroxandrostendione, 4-hydroxyandrostenedione, reference compound] the IC50 (human aromatase (CYP19)) was 11 nM.
Compound `Nc1ccc(S(=O)(=O)Nc2ccnn2-c2ccccc2)cc1` [Sulfaphenazole, reference compound] has an IC50 (human aromatase (CYP19); positive and negative control, DBF 0.2 μM, 30 min, duplicate determinations, read-out: IC50 CYP19/DBF (controls)) of over 10000 nM.
For Astaxanthin, the “Solubility in DMSO (in words)” value [1] was “dissolve completely”, the “IC50 CYP19/DBF” value (human aromatase (CYP19); cDNA-derived enzyme in microsomes from baculovirus-infected insect cells, DBF 0.2 μM, 30 min, duplicate determinations, concentration assumes complete solubilization) was 67 µg/mL and 66 µg/mL and the “Inhibition of aromatase activity (in words)” value (human aromatase (CYP19); summary statement on Table 2) was “most significant inhibition”.
In the case of Phytosterols, the “Solubility in DMSO (in words)” value [1] is reported as “little or no solubility in DMSO”.
